Source: patent publication US20140024700A1, “BLOOD-BORNE MIRNAS AS SURROGATE MARKERS OF DRUG EFFICACY FOR CARDIAC CONDITIONS” (miRagen Therapeutics, Inc., priority 2010, published 2014)
Entries after “also recorded” stand apart in the source; their conditions may differ.

Key:
plasma miRNAs = test: Real-time PCR of plasma miRNAs, 6% NaCl diet (Example 3); format: in vivo, rat
Method: One week following the initiation of the 6.0% NaCl diet, rats were dosed subcutaneously (sc) with saline or oligonucleotides (M−10101, 5′-CTTTTTGCTCGTCTTA-3′ (SEQ ID NO: 12) or M-10591, 5′-TCCTAGAAAGAGTAGA-3′ (SEQ ID NO:13)) at 25 mg/kg every 2 weeks. Captopril or water were dosed daily by oral gavage. Echocardiography was performed every 2 weeks starting one week post […] dosing. The Captopril dose for rat was selected to match the standard human dose in man.
Quantitative real-time PCR analysis from plasma. RNA from plasma samples was isolated using Trizol LS Reagent (Invitrogen), using the manufacturer's protocol. Prior to RNA isolation, […] of two different synthetic C. elegans miRNA sequences were added to serve as internal controls for normalization of target miRNAs. The C. elegans sequences used were cel-miR-2 ([…], SEQ ID NO:5), and cel-lin-4 ([…]; SEQ ID NO:6) (Dharmacon). The final RNA pellet was re-suspended in a final volume equal to the initial plasma volume and 5 μl was used for subsequent RT-PCR reactions, as described above.

[1] = tested on: miR-499, miR-208b, Myh6, Myh7, Myh7b, HP1β; test: Cardiac tissue markers by real-time PCR, Northern and Western blot, 4% NaCl diet (Example 1); format: in vivo, rat; details: 4% NaCl HS diet
Excerpt: This regulation of miR-499 and miR-208b was confirmed by Northern blot analysis (FIG. 2B).
To assess the regulation of the myosin host genes, we examined Myh6, Myh7, and Myh7b mRNA levels.
For in vivo real-time PCR analysis, RNA was extracted from cardiac tissue using Trizol (Invitrogen) after which two μg RNA from each tissue sample was used to generate cDNA using Super Script II reverse transcriptase per manufacturer's specifications (Invitrogen). To detect the level of miR-208 RT-PCR was performed using the Taqman MicroRNA assay (Applied Biosystems, ABI) according the manufacturer's recommendations, using 10-100 ng of total RNA. The expression of a subset of genes was analyzed by quantitative real time PCR using Taqman probes purchased from ABI.
Total RNA was isolated from cardiac tissue samples by using Trizol reagent (Gibco/BRL). Northern blots to detect microRNAs were performed as described previously described. A U6 probe served as a loading control (IDT). 10 μg of total RNA from cardiomyocytes or heart tissue was loaded on 20% acrylamide denaturing gels and transferred to Zeta-probe GT genomic blotting membranes (Bio-Rad) by electrophoresis. After transfer, the blots were cross-linked and baked at 80° C. for 1 hr. To maximize the sensitivity of miRNA detection, oligonucleotide probes were labeled with the Starfire Oligos Kit (IDT, Coralville, Iowa) and α-^32P dATP (Amersham or Perkin Elmer). Probes were hybridized to the membranes overnight at 39° C. in Rapid-hyb buffer (Amersham), after which they were washed twice for 10 minutes at 39° C. with 0.5×SSC containing 0.1% SDS. The blots were exposed and quantified by PhosphorImager analysis (GE HealthCare Life Sciences) and a U6 probe served as a loading control (ABI). The intensity of the radioactive signal was used to quantify the fold change in expression using a phosphorimager and ImageQuant (Bio-Rad).
Western blot analysis. For Western blot analysis, Myosin was extracted from cardiac cells or tissue as described (H-amalainen, N. & Pette, D. Patterns of myosin isoforms in mammalian skeletal muscle fibres. Microsc Res Tech 30, 381-389 (1995)). MHC isoforms were detected by loading 0.1 ug protein lysate on a 4-15% gradient gel and separated by SDS PAGE and Western blotting was performed with mouse monoclonal anti-myosin (slow, skeletal M8421) (Sigma, Mo.), which is highly specific for Myh7.

Dahl salt-sensitive rats [2] = test: Dahl salt-sensitive rat heart failure model, 8% NaCl high-salt diet (Example 1); format: in vivo; details: 8% NaCl HS diet
Excerpt: To determine the therapeutic potential of miR-208a inhibition in vivo, we designed an antimiR targeting bases 2 to 17 of the 5′ region of mature miR-208a and containing a combination of LNA and DNA linked by phosphorothioate bonds. The sequence of the antimiR-208a, which is referred to as M-10101, was 5′-[…]-3′ (SEQ ID NO: 12). To test the therapeutic relevance of miR-208a inhibition, we used Dahl salt-sensitive rats that were either fed a low-salt (LS) diet (0.25% NaCl) or a high-salt (HS) diet (8.0% NaCl) starting at 8 weeks of age. Initiation of an HS diet in Dahl salt-sensitive rats results in chronic hypertension, which progresses to a model of congestive heart failure associated primarily with diastolic dysfunction (Rodenbaugh et al. (2007) Am J Physiol Heart Circ Physiol. 293, H1705-H1713). After one week on the HS diet, rats were administered saline, 25 mg/kg antimiR-208a, or 25 mg/kg scrambled control oligo subcutaneously every two weeks. […] As an indication of health, we monitored body weight during the duration of the study.
The LNA-antimiR oligonucleotides were synthesized at miRagen Therapeutics, Inc. as unconjugated and fully phosphorothiolated oligonucleotides perfectly complementary to the 5′ region of the mature miR-208a sequence. The LNA control oligonucleotide consisted of a sequence directed against a C. elegans specific miRNA. […]

miR-208a, Myh6, Myh7 = test: Cardiac tissue markers by Taqman RT-PCR, 4% NaCl diet (Example 2); format: in vivo, rat; details: 25 mg/kg sc every 2 weeks
Method: The flowing experimental groups were tested:
Following catheter implant surgery, high-salt diet was initiated. […] Animals were sacrificed 8 weeks after the initial injection.
Tissue RNA was isolated using standard Trizol RNA isolation.

Dahl salt-sensitive rats [3] = test: Dahl salt-sensitive rat model, 6% NaCl diet: body weight and survival (Example 3); format: in vivo
[4] = real-time PCR, Northern blot, listed as anti-miR-208a
[5] = real-time PCR, listed as AntimiR-208a
[6] = real-time PCR, listed as anti-miR-208a
[7] = listed as antimiR-208a, 25 mg/kg

M-10101: antimiR targeting bases 2 to 17 of mature miR-208a, LNA and DNA linked by phosphorothioate bonds; 5′-CTTTTTGCTCGTCTTA-3′ (SEQ ID NO: 12) (all phosphorothioate, sugars by position and methylation of C not given here; LNA/DNA mixmer; listed as Homo sapiens)
Plasma miR-19b (plasma miRNAs): significantly increased
Plasma miR-223 (plasma miRNAs): more significant decrease
Plasma miR-423-5p, miR-106b, miR-16, miR-92a, miR-378, miR-210, miR-378*, miR-20b and miR-93 (plasma miRNAs): decreased
HP1β (miR-208a target) protein, Western blot ([1]; listed as anti-miR-208a): target depression
Myh7 protein, Western blot of ventricular tissue ([1]; listed as anti-miR-208a): dose-dependent regulation of Myh7 was confirmed
Myh7 protein, Western blot of ventricular tissue ([1]; listed as antimiR-208a): dose-dependent reduction
miR-208b level in cardiac tissue [1, 4]: dose-dependent decrease in miR-208b levels
miR-499 expression in cardiac tissue [1, 4]: dose-dependent decrease in expression; also recorded: dose-dependent reduction in miR-499
miR-208b level in cardiac tissue ([1]; real-time PCR, Northern blot, listed as antimiR-208a): significantly blunts this response
Myh6 mRNA in cardiac tissue [1, 5]: dose-dependently increases Myh6 expression
Myh7b mRNA in cardiac tissue [1, 5]: reduces Myh7b expression
Myh7 mRNA (HS diet-induced increase) in cardiac tissue [1, 5]: dose-dependently reduced
Myh6 mRNA in cardiac tissue [1, 6]: normalized the decreased expression
Myh7b mRNA in cardiac tissue [1, 6]: dose-dependent reduction
Myh7 mRNA (HS diet-induced increase) in cardiac tissue [1, 6]: dose-dependently blunted
Food intake (Dahl salt-sensitive rats [2]): comparable ingestion between all HS-fed groups
Survival (Kaplan-Meier) (Dahl salt-sensitive rats [2]; 25 mg/kg sc every 2 weeks starting 1 week after HS diet, listed as antimiR-208a, 25 mg/kg): significantly alleviated these symptoms; also recorded: significantly improved
Myh7 expression in cardiac tissue (miR-208a, Myh6, Myh7; listed as AntimiR-208a, 25 mg/kg): blunted the hypertension-induced increase in Myh7 expression
Myh6 expression in cardiac tissue (miR-208a, Myh6, Myh7; [7]): prevented the high-salt diet-induced decrease in Myh6 expression; also recorded: prevents this decrease
Myh7 expression in cardiac tissue (miR-208a, Myh6, Myh7; [7]): reduces this increase
miR-208a in cardiac tissue (miR-208a, Myh6, Myh7; vs HS/Saline): greater inhibition of miR-208a
Survival (Kaplan-Meier) (Dahl salt-sensitive rats [3]; M-10101 25 mg/kg sc every 2 weeks, water po, 25 mg/kg): significantly improved survival; also recorded: No mortality was observed
Body weight (Dahl salt-sensitive rats [3]; oligonucleotide 25 mg/kg sc every 2 weeks): partially prevented the body weight loss
